# Data published in patent US9950993B2 (Rutgers, The State University of New Jersey, priority 2015, dated 2018).
# Tested on: Escherichia coli W4573
# Experiment: Test A: MIC-based assay for efflux pump inhibition (enhancement of minocycline MIC)
# Assay type: cell-based
# Conditions: ratio of minocycline MIC in absence to MIC in presence of test compound, test compound at 12.5 ug/ml (27-48 μM)
# Procedure: Test A. Minimum Inhibitory Concentration (MIC)-Based Assay for Efflux Pump Inhibition:
# MIC-based assays were used to evaluate the impact of potential efflux pump inhibiting (EPI) compounds on the MIC of minocycline, an antibiotic known to be a substrate for Gram-negative bacterial efflux pumps. The assays were conducted in accordance with Clinical and Laboratory Standards Institute (CLSI) guidelines for broth microdilution, with the modification that assays were conducted in the presence and absence of the test EPI compounds. When present, the EPI compounds were added to cation-adjusted Mueller-Hinton (CAMH) broth (Becton, Dickinson and Co., Franklin Lakes, N.J.) at a final concentration of 12.5 µg/mL.
# Log-phase Gram-negative bacteria were added to 96-well microtiter plates (at 5×10^5 colony forming units (CFU) per mL) containing two-fold serial dilutions of minocycline in CAMH broth either in the absence or presence of the test EPI compounds. In all assays, each serial dilution of minocycline was present in duplicate. The final volume in each well was 0.1 mL, and the microtiter plates were incubated aerobically for 24 hours at 37° C. Bacterial growth was then monitored by measuring the optical density (OD) at 600 nm using a VersaMax® plate reader (Molecular Devices, Inc., Sunnyvale, Calif.), with the MIC being defined as the lowest compound concentration at which growth was ≥90% inhibited compared to antibiotic-free control. The following Gram-negative bacterial strains were included in these assays:
# Escherichia coli W4573, ATCC 25922, and ATCC BAA-201 (an extended spectrum […] (ESBL)-producing strain that expresses the TEM-3 β-lactamase).
# The efflux pump mutant E. coli strain N43 (acrA1) was used as a positive control.
# The enhancement is the ratio of the minocycline MIC in the absence of test compound to the minocycline MIC in the presence of test compound.
row,SMILES,Enhancement
1,"NCCC[C@H](N)CNC(=O)C(CCc1ccccc1)CCc1ccccc1 [Example 1, (S)—N-(2,5-diaminopentyl)-2-phenethyl-4-phenylbutanamide]",8
2,"NCCC[C@@H](N)CNC(=O)C(CCc1ccccc1)CCc1ccccc1 [Example 2, (R)—N-(2,5-diaminopentyl)-2-phenethyl-4-phenylbutanamide]",64
3,"NCC[C@H](N)CNC(=O)C(CCc1ccccc1)CCc1ccccc1 [Example 3, (S)—N-(2,4-diaminobutyl)-2-phenethyl-4-phenylbutanamide]",8
4,"NC[C@H](N)CNC(=O)C(CCc1ccccc1)CCc1ccccc1 [Example 4, (S)—N-(2,3-diaminopropyl)-2-phenethyl-4-phenylbutanamide]",1
5,"NC[C@@H](N)CCCNC(=O)C(CCc1ccccc1)CCc1ccccc1 [Example 5, (S)—N-(4,5-diaminopentyl)-2-phenethyl-4-phenylbutanamide]",2
6,"NCCC[C@H](N)CNC(=O)C(CCc1ccccc1)Cc1ccccc1 (stereo partly drawn) [Example 6, 2-benzyl-N—((S)-2,5-diaminopentyl)-4-phenylbutanamide]",4
7,"NCCC[C@H](N)CNC(=O)C(Cc1ccccc1)Cc1ccccc1 [Example 7, (S)-2-benzyl-N-(2,5-diaminopentyl)-3-phenylpropanamide]",8
8,"NCCC[C@H](N)CNC(=O)C(c1ccccc1)c1ccccc1 [Example 8, (S)—N-(2,5-diaminopentyl)-2,2-diphenylacetamide]",4
9,"NCCC[C@H](N)CNC(=O)CC(c1ccccc1)c1ccccc1 [Example 9, (S)—N-(2,5-diaminopentyl)-3,3-diphenylpropanamide]",8
10,"NCCC[C@H](N)CNC(=O)CCCc1ccccc1 [Example 10, (S)—N-(2,5-diaminopentyl)-4-phenylbutanamide]",4
11,COc1ccc(CCC(CCc2ccccc2)C(=O)NC[C@@H](N)CCCN)cc1 (stereo partly shown) [Example 11],4
12,"NCCC[C@H](N)CNC(=O)CC(Cc1ccccc1)Cc1ccccc1 [Example 12, (S)-3-Benzyl-N-(2,5-diaminopentyl)-4-phenylbutanamide]",16
13,"NCCC[C@H](N)CNC(=O)CC(CCc1ccccc1)CCc1ccccc1 [Example 13, (S)—N-(2,5-diaminopentyl)-3-phenethyl-5-phenylpentanamide]",512
